One may read the pKi as the Ki on a negative log10 scale, so that one unit is a factor of ten.

Format in all cases: biochemical
One assay addresses T1, Human cathepsin F (Homo sapiens, UniProt Q9UBX1).
T1 sequence (Q9UBX1 271-484): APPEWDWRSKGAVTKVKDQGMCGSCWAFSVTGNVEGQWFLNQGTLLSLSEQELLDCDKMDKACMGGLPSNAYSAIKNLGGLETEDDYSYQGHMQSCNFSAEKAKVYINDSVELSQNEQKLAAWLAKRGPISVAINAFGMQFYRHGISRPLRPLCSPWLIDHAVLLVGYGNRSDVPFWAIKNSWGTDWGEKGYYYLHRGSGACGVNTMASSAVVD
As to the kind of experiment: Cathepsin F Assay. The conditions noted are these: apparent inhibition constant; substrate Z-Phe-Arg-AMC; pH 6.5. The method, then: (§1) Solutions of test compounds in varying concentrations were prepared in 10 μL of dimethyl sulfoxide (DMSO) and then diluted into assay buffer (40 μL, comprising: MES, 50 mM (pH 6.5); EDTA, 2.5 mM; and NaCl, 100 mM); DTT, 2.5 mM; and BSA, 0.01%. Human cathepsin F (0.1 pMoles in 25 μL of assay buffer) was added to the dilutions. The assay solutions were mixed for 5-10 seconds on a shaker plate, covered and incubated for 30 min at room temperature. Z-Phe-Arg-AMC (2 nMoles in 25 μL of assay buffer containing 10% DMSO) was added to the assay solutions and hydrolysis was followed spectrophotometrically (at λ 460 nm) for 5 min. Apparent inhibition constants (Ki) were calculated from the enzyme progress curves using standard mathematical models.

The target of another assay is Human cathepsin S (Homo sapiens, UniProt P25774). The experiment in a line: Cathepsin S Assay. The conditions noted are these: apparent inhibition constant; substrate Z-Val-Val-Arg-AMC; pH 6.5. As for the experimental part:
as §1, with “β-mercaptoethanol,” for “DTT,”, “[…].” for “0.01%.”, “S (0.05” for “F (0.1”, “Z-Val-Val-Arg-AMC (4” for “Z-Phe-Arg-AMC (2”

In a further assay the target is Human cathepsin B (Homo sapiens, UniProt P07858). The experiment in a line: Cathepsin B Assay. As to conditions: apparent inhibition constant; substrate Z-FR-AMC; pH 6. The method, then:
Solutions of test compounds in varying concentrations were prepared in 10 μL of dimethyl sulfoxide (DMSO) and then diluted into assay buffer (40 μL, comprising: N,N-bis(2-hydroxyethyl)-2-aminoethanesulfonic acid (BES), 50 mM (pH 6); polyoxyethylenesorbitan monolaurate, 0.05%; and dithiothreitol (DTT), 2.5 mM). Human cathepsin B (0.025 pMoles in 25 μL of assay buffer) was added to the dilutions. The assay solutions were mixed for 5-10 seconds on a shaker plate, covered and incubated for 30 min at room temperature. Z-FR-AMC (20 nMoles in 25 μL of assay buffer) was added to the assay solutions and hydrolysis was followed spectrophotometrically at (λ 460 nm) for 5 min. Apparent inhibition constants (Ki) were calculated from the enzyme progress curves using standard mathematical models.

A further assay concerns the target Human cathepsin L (Homo sapiens, UniProt P07711). The experiment in a line: Cathepsin L Assay. The conditions noted are these: apparent inhibition constant; substrate Z-Phe-Arg-AMC; pH 5.5. The method, then:
Solutions of test compounds in varying concentrations were prepared in 10 μL of dimethyl sulfoxide (DMSO) and then diluted into assay buffer (40 μL, comprising: MES, 50 mM (pH 5.5); EDTA, 2.5 mM; and DTT, 2.5 mM). Human cathepsin L (0.05 pMoles in 25 μL of assay buffer) was added to the dilutions. The assay solutions were mixed for 5-10 seconds on a shaker plate, covered and incubated for 30 min at room temperature. Z-Phe-Arg-AMC (1 nMoles in 25 μL of assay buffer) was added to the assay solutions and hydrolysis was followed spectrophotometrically at (λ 460 nm) for 5 min. Apparent inhibition constants (Ki) were calculated from the enzyme progress curves using standard mathematical models.

pKi: −log10 of the molar value.

Human cathepsin L, sequence (P07711 114-333): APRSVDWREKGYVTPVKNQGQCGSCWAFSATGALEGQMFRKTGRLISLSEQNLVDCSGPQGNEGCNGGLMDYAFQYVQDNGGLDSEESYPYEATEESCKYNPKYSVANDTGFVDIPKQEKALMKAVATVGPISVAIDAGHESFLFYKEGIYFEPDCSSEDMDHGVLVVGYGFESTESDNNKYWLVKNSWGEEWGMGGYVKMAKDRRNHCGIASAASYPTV
Human cathepsin S, sequence (P25774 115-331): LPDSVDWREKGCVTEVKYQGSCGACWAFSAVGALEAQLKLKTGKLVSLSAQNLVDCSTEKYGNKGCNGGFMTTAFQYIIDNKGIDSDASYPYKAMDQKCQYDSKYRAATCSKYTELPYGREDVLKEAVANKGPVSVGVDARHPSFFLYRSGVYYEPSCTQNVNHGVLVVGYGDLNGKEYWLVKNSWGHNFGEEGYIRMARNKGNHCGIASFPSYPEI

For the molecule `N#CC1(NC(=O)[C@H](CC(F)(F)Cc2ccccc2)N[C@@H](c2ccc(F)cc2)C(F)(F)F)CC1`, the negative logarithm of the Ki (pKi) at Human cathepsin F was 5.30 to 6.30; at Human cathepsin S it was more than 7.70; on Human cathepsin B, 6.30 to 7.68; at Human cathepsin L it was 6.30 to 7.68.

Consider `N#CC1(NC(=O)[C@H](CC(F)(F)c2ccccc2)N[C@@H](c2ccc(F)cc2)C(F)(F)F)CC1`, for which the pKi at Human cathepsin F is less than 5.30; on Human cathepsin S, more than 7.70; at Human cathepsin B it was less than 5.30; at Human cathepsin L, 5.30 to 6.30.

With `CC(C)CC(F)(F)C[C@H](N[C@@H](c1ccc(F)cc1)C(F)(F)F)C(=O)NC1(C#N)CC1`, the pKi at Human cathepsin F was 6.30 to 7.68; on Human cathepsin S, more than 7.70; on Human cathepsin B, 6.30 to 7.68; on Human cathepsin L, 6.30 to 7.68.

As for `N#CC1(NC(=O)[C@H](CC(F)(F)CC2CC2)N[C@@H](c2ccc(F)cc2)C(F)(F)F)CC1`, the pKi on Human cathepsin F is 6.30 to 7.68; at Human cathepsin S, more than 7.70; at Human cathepsin B it was 6.30 to 7.68; on Human cathepsin L it was 6.30 to 7.68.

For the molecule `CCC(F)(F)C[C@H](N[C@@H](c1ccc(F)cc1)C(F)(F)F)C(=O)NC1(C#N)CC1`, the pKi at Human cathepsin F is 6.30 to 7.68; on Human cathepsin S, more than 7.70; at Human cathepsin B, 6.30 to 7.68; on Human cathepsin L, 6.30 to 7.68.

Take `CCCC(F)(F)C[C@H](N[C@@H](c1ccc(F)cc1)C(F)(F)F)C(=O)NC1(C#N)CC1`: the pKi on Human cathepsin F was 6.30 to 7.68; on Human cathepsin S, more than 7.70; on Human cathepsin B, 6.30 to 7.68; on Human cathepsin L it was 6.30 to 7.68.

`CCCCC(F)(F)C[C@H](N[C@@H](c1ccc(F)cc1)C(F)(F)F)C(=O)NC1(C#N)CC1`: the pKi at Human cathepsin S is more than 7.70.

In the case of `CCC(F)(F)CC[C@H](N[C@@H](c1ccc(F)cc1)C(F)(F)F)C(=O)NC1(C#N)CC1`, the pKi at Human cathepsin S was more than 7.70.

For the origin of these results see patent US8367732B2, “Di-fluoro containing compounds as cysteine protease inhibitors” (Virobay, Inc., priority 2006, dated 2013).
